The values below come from patent publication US20210361563A1, “TRANSDERMAL SYSTEM FOR SYNERGISTIC IMMUNE-CHEMOTHERAPY USING MICRONEEDLES AND METHOD OF TREATMENT THEREOF” (THE UNIVERSITY OF HONG KONG, priority 2020, published 2021).

Series [1] deals with SCC VII-luc tumor homograft. Nature of the series: Antitumor efficiency in immunocompetent murine tumor homograft model. It counts as in vivo, C3H/HeJ mice. The text has this: We further investigated tumor inhibition on an immunocompetent murine tumor homograft model. SCC VII cell lines were subcutaneously inoculated into the right flank of C3H/HeJ mice to obtain a superficial tumor. […] Tumor volume was monitored using a Vernier caliper before the treatment and 3 days after each treatment. Furthermore, tumor growth was double confirmed using bioluminescent images (FIG. 3A). […] The ineffective therapeutic role of aPD-1, however, may be due to the following reasons. First, the renovated T cells may be too exhausted that they display impaired effector function with limited proliferative potential ^26. Second, cancer antigens may be “masked”; therefore, they cannot be identified by T-cells ^27. Third, the tumor microenvironment may contain multiple inhibitory immune cells, such as tumor-associated macrophages, which overwhelm the T-cells into have adverse effects ^28. Although the exact reason was unclear, the animal model in this study was unresponsive to systemic aPD-1 immunotherapy.
Male and female C3H/HeJ mice were purchased from The Jackson Laboratory (Bar Harbor, Me., USA) and bred in the Laboratory Animal Unit in the University of Hong Kong. All animal procedures were performed in accordance with a protocol approved by the Committee on the Used of Live Animals in Teaching and Research (CULATR, HKU). An immunocompetent murine tumor homograft model was established by injecting 1×10^6 SCC VII-luc cells suspended in 100 μL Hanks' balanced salt solution (HBSS, Gibco, USA) on the right flank of the mouse. […] The treatments were administered once the tumor volume reached 10 mm^3 and each treatment was administered every 3 days and lasted for 3 cycles. […] The tumor size was monitored by both the bioluminescence signals and the Vernier calipers every 3 days. Tumor volume was calculated as 0.5× long diameter×short diameter^2. Tumor volume and tumor wet weight were also measured after sacrifice. Tumor proliferation was determined in sliced tumor tissues using anti-Ki67 (Abcam, USA) following the IHC protocol.

The next series deals with IFN-γ, TNF-α. Nature of the series: Serum IFN-γ and TNF-α ELISA. Type of series: in vivo, C3H/HeJ mice. How it is done:
(§1) To evaluate T-cell responses and the immune profile, tumor tissues and blood were harvested after sacrifice. aPD-1, being an ICB, could be a positive regulator of TILs. The infiltration of CD4+ T-cells and CD8+ T-cells into tumor cells was assessed through flow cytometry. […] To reveal the cellular mechanism in vivo, the production of IFN-γ and TNF-α was determined using ELISA kit in mice serum. […] (FIG. 5E)
Blood was collected from mice and maintained in anticoagulative tubes ([…]® Blood Collection Tubes, K3E K3EDTA, Greiner Bio-One International, Australia). Blood was centrifuged at 1500 g for 10 minutes at 4° C., then plasma was transferred into a new Eppendorf. After centrifugation at 2000 g for 15 mins at 4° C., the supernatant was collected to obtain the serum of mice. IFN-γ and TNF-α in the serum were detected using Mouse IFN-γ ELISA kit (Thermo Fisher Scientific, USA) and Mouse TNF-α ELISA kit (Thermo Fisher Scientific, USA), respectively.
(In an ELISA, binding on a coated surface is turned into a signal by an enzyme label.)

Series [2] concerns CD4+ and CD8+ T-cells in tumor. Put plainly: T-cell infiltration in tumor tissues by flow cytometry. Type of series: in vivo, C3H/HeJ mice. To be noted: tumor tissue after sacrifice. The protocol: as §1
A piece of tumor was collected from each mouse for flow cytometry. After execution, the tissues were rinsed with PBS and maintained in PBS at 4° C. The tumor tissues were sliced into very small pieces and sieved through 100 μm cell strainer (BD Falcon, USA). Subsequently, the sliced tissue was pressed using the plunger end of a syringe. The supernatant was decanted and the pellet resuspended the pellet in Flow Cytometry Staining Buffer (PBS plus 10% FBS). The solution was separated into two Eppendorf tubes with a volume of 300 μL, then 1 μL primary antibody was added into one of the two tubes individually. The three primary antibodies used were rabbit anti-CD4 (Abcam, Cambridge, Mass., USA), rat anti-CD8 (Abcam, USA), and mouse anti-foxp3 (Abcam,USA). […]
In general terms: In flow cytometry, cells or beads pass a laser one at a time.

The nature of series [3]: H&E staining of liver, lung, kidney and spleen. Type of series: in vivo, C3H/HeJ mice. The text has this: Liver, lung, kidney and spleen of each group were collected after sacrifice for hematoxylin and eosin (H&E) staining to analyze whether drugs induced toxicity to these organs (FIG. 6C).
The livers, kidneys, spleens and lungs were collected after sacrifice and fixed in 4% PFA. After embedding into paraffin, the tissues were sliced into 5-μm sections for H&E staining. Images of the tissues were collected using a polarized light microscope (ECLIPSE LV100POL, Japan). The BUN and total IgG level in the serum were detected using a urea nitrogen detection kit (Thermo Fisher Scientific, USA) and a mouse IgG total ELISA kit (ThermoFisher Scientific, USA) respectively.

Series [4] concerns SCC VII-luc tumor homograft. Put plainly: Ki-67 IHC cell proliferation in tumor tissue sections. It counts as in vivo, C3H/HeJ mice. How it is done: Cell proliferation was further confirmed through IHC in formalin-fixed paraffin-embedded tumor tissue sections. […] Tumor infiltrating lymphocytes (TILs) like CD4+ cells and CD8+ infiltrated the tumor tissue and started to proliferate after aPD-1 treatment. […] TILs attacked the tumor tissues and killed the tumor cells afterwards. Whether these proliferated cells were T-cells or tumor cells were further confirmed through flow cytometry. Additionally, tumor cell apoptosis was assessed through in situ TUNEL assay (FIG. 4B & 4D). […] In sum, aPD-1-CDDP-NPs MN can not only increase the amount of activated T-cells but also kill tumor cells.
Male and female C3H/HeJ mice were purchased from The Jackson Laboratory (Bar Harbor, Me., USA) and bred in the Laboratory Animal Unit in the University of Hong Kong. All animal procedures were performed in accordance with a protocol approved by the Committee on the Used of Live Animals in Teaching and Research (CULATR, HKU). […] The tumor size was monitored by both the bioluminescence signals and the Vernier calipers every 3 days. Tumor volume was calculated as 0.5× long diameter×short diameter^2. Tumor volume and tumor wet weight were also measured after sacrifice. Tumor proliferation was determined in sliced tumor tissues using anti-Ki67 (Abcam, USA) following the IHC protocol.

The test system of the next series is cell lines. Nature of the series: Cell apoptosis (APO-BrdU TUNEL) and cell cycle (PI) by flow cytometry. To be noted: Pt 100 μM, 4 h. It counts as cell-based. The protocol:
A large number of 3hydroxyl ends appeared when DNA strands became fragmented, and they were labeled with BrdUTP and terminal deoxynucleotidyl transferase (TdT) using the TUNEL technique. After DNA incorporation, BrdU could be detected through anti-BrdU antibody.
Cell apoptosis was detected using flow cytometry with the APO-BrdU™ tranferase dUTP nick end laveling (TUNEL) Assay Kit (Thermo Fisher Scientific, USA), and the phase of the cell cycle was determined using propidium iodide (PI, Thermo Fisher Scientific, USA) following the manufacturer's protocol. Cells were fixed with 1% paraformaldehyde (PFA) or ethanol before staining, and they were analyzed through flow cytometry (BD FACSVerse™, BD, Franklin Lake, N.J., USA) immediately after staining. All data were analyzed using FlowJo (7.6.1, BD, USA).

In the case of `N.N.[Cl][Pt][Cl]` [CDDP, cis-Diammineplatinum(II)dichloride], the “antitumor effect (in words)” value in series [1] (SCC VII homograft, three treatments) was “limited treatment efficacy”. In addition, in series [1] (mouse, in vivo), the “tumor volume compared to control group (in words)” value was “no difference” and the “tumor weight compared to control group (in words)” value was “significantly reduced”. In the series with IFN-γ, TNF-α, the “IFN-γ level in serum” value is listed as “lower IFN-γ levels than other five groups”. In series [2], the “CD8+ T-cells among tumor cells” value was found to be 4.478%. Besides, the “kidney histology (H&E)” value in series [3] (kidney) was “severe toxic tubular necrosis”. Moreover, the “liver histology (H&E)” value in series [3] (liver) is “some alterations were found in the liver parenchyma”. Further, the “lung histology (H&E)” value in series [3] (lung) is “diffuse damage of the pulmonary alveoli and severe inflammatory infiltration”. Also, the “spleen histology (H&E)” value in series [3] (spleen) is listed as “white pulp was evidently reduced”. For the same molecule, the “cells continuing to proliferate (Ki-67)” value in series [4] came to 25%. In the series on cell lines, this molecule gave a cell apoptosis of 2.79%.
